Blank lines part the entries; values can stand above or below the molecule they belong to.
Assays:
[1] = biological target: T1, 20S proteasome extracted from rat liver, chymotryptic-like (CT-L) activity (Rattus norvegicus, UniProt P18421+P28075); assay: Proteasome inhibition, chymotryptic-like (CT-L) activity, fluorescent peptide Suc-leu-leu-Val-Tyr-AMC; assay type: biochemical; conditions: rat liver 20S proteasome, 37° C., 1 h
T1 construct: 20S proteasome extracted from rat liver; from tissue; host or cells: rat liver
Description: (§1) The activities of the proteasome were assayed using fluorescent peptides: Suc-leu-leu-Val-Tyr-AMC (Suc represents succinyl, and AMC represents 7-amino-4-methylcoumarin, purchased from SIGMA) for determining chymotryptic-like (CT-L) activity; Z-Ala-Arg-Arg-AMC (Z represents benzyloxycarbonyl, purchased from Calbiochem) for determining trypsin-like (TL) activity; and Z-leu-leu-Glu-βNA (βNA represents β-naphtylamide, purchased from SIGMA) for determining peptidyl-glutamyl-peptide-hydrolyzing (PGPH) enzyme activity.
(§2) Method for the aforesaid activity assays is as follows: 1 μg of 20S proteasome extracted from rat liver was incubated with a 100 μL solution containing various concentrations of compounds, 50 μM fluorescent peptides and 20 mM Tris-HCl at 37° C. for 1 h, respectively. The fluorescence released from AMC and RNA reagents was measured by a spectrofluorimeter Fluostar OPTIMA and BMG Germany at excitation/emission wavelengths of 380/440 nm and 335/410 nm, respectively. 0.1% DMSO was used as a solvent control. Compared with the fluorescence of solvent control, an inhibition rate was calculated.

[2] = biological target: T2, 20S proteasome extracted from rat liver, trypsin-like (TL) activity (Rattus norvegicus, UniProt P40112+Q9JHW0); assay: Proteasome inhibition, trypsin-like (TL) activity, fluorescent peptide Z-Ala-Arg-Arg-AMC; assay type: biochemical; conditions: rat liver 20S proteasome, 37° C., 1 h; read-out: T-L (IC50)
T2 construct: 20S proteasome extracted from rat liver; from tissue; host or cells: rat liver
Description: as §1
as §2, with “calculated. Said assays used anticancer drug bortezomib (leukemia drug), namely PS341 as compound for positive control.” for “calculated.”

[3] = biological target: T3, 20S proteasome extracted from rat liver, peptidyl-glutamyl-peptide-hydrolyzing (PGPH) enzyme activity (Rattus norvegicus, UniProt P28073+Q9JHW0); assay: Proteasome inhibition, PGPH activity, fluorescent peptide Z-leu-leu-Glu-βNA; assay type: biochemical; conditions: rat liver 20S proteasome, 37° C., 1 h
T3 construct: 20S proteasome extracted from rat liver; from tissue; host or cells: rat liver
Description: as §1
as §2, with “calculated. Said assays used anticancer drug bortezomib (leukemia drug), namely PS341 as compound for positive control.” for “calculated.”

[4] = system: HL-60 human leukemia cell; assay: Preliminary anti-tumor screening in vitro, MTT method; assay type: cell-based; parameters: key to Test results: +++: inhibition rates at three doses are greater than 50%; ++: inhibition rates at two doses are greater than 50%; +: inhibition rate at one dose is greater than 50%; conditions: HL-60, MTT; for Test results: number of doses with inhibition > 50%; for inhibition at 0.05 µM / inhibition at 0.5 µM / inhibition at 5 µM: Homo sapiens, read-out: Inhibition rate %
Description: (§3) The test methods used in this test example is the routine method for anti-tumor activities test in pharmaceutical area, for example, referring to the following reference: (J. Immunol Method, 1983, 65, 55).
(§4) Test models: A: MTT method (HL-60 human leukemia); B: SRB method (BGC-823 human gastric cancer); C: SRB method (Bel-7402 human hepatocarcinoma); D: SRB method (KB human nasopharyngeal carcinoma).
(§5) The aforesaid tests were carried out with the compounds of Examples 1-26 in the present invention, test results are shown in Tables 2-5.

[5] = system: BGC-823 human gastric cancer cell; assay: Preliminary anti-tumor screening in vitro, SRB method; assay type: cell-based; parameters: key to Test results: +++: inhibition rates at three doses are greater than 50%; ++: inhibition rates at two doses are greater than 50%; +: inhibition rate at one dose is greater than 50%; conditions: BGC-823, SRB; for Test results: number of doses with inhibition > 50%; for inhibition at 0.05 µM / inhibition at 0.5 µM / inhibition at 5 µM: Homo sapiens, read-out: Inhibition rate %
Description: as §3, §4, §5

[6] = system: Bel-7402 human hepatocarcinoma cell; assay: as above; assay type: cell-based; parameters: key to Test results: +++: inhibition rates at three doses are greater than 50%; ++: inhibition rates at two doses are greater than 50%; +: inhibition rate at one dose is greater than 50%; conditions: Bel-7402, SRB; for Test results: number of doses with inhibition > 50%; for inhibition at 0.05 µM / inhibition at 0.5 µM / inhibition at 5 µM: Homo sapiens, read-out: Inhibition rate %
Description: as §3, §4, §5

[7] = system: KB human nasopharyngeal carcinoma cell; assay: as above; assay type: cell-based; parameters: key to Test results: +++: inhibition rates at three doses are greater than 50%; ++: inhibition rates at two doses are greater than 50%; +: inhibition rate at one dose is greater than 50%; conditions: for inhibition at 0.05 µM / inhibition at 0.5 µM / inhibition at 5 µM: Homo sapiens, read-out: Inhibition rate %; for Test results: number of doses with inhibition > 50%
Description: as §3, §4, §5

murine H22 cells = assay: In vivo anti-tumor activity, H22 tumor in ICR mice, oral administration; conditions: 1 mg/kg orally once per day for 10 days
Description: Animal: ICR mice, half male and half female (18-22 g), provided by Laboratory Animal Science Department of Peking Medical University.
Tumor cell strain: murine H22 cells were provided by cell bank of pharmacological group of the State Key Laboratory of Natural and Biomimetic Drugs.
Method: Murine tumor cells were taken to be treated, and diluted to 5×10^6 cells/ml after treatment. The diluted tumor cells solution was inoculated to the left forelimb oxter of the mice with 0.2 ml/mouse under aseptic condition. 24 h after inoculation, the mice were divided into groups and orally administered once per day to the mice in each group for 10 days. At the 12th day, the tumors were peeled off and weighed, and the average weight of the tumor, standard deviation (SD) and p-value of each group were calculated.

Structure (SMILES): CC(C)C[C@H](NC(=O)[C@H](CC(C)C)NC(=O)[C@H](Cc1ccc2ccccc2c1)NC(=O)c1cnccn1)B1OC2CC3C[C@@H](C3(C)C)[C@]2(C)O1 (stereo partly drawn) [Compound 5m, Pinanediol N-pyrazineformyl-L-naphthylalanyl-L-leucyl-L-leucine Borate]
- IC50 [1]: 0.345 ± 0.106 nM
- IC50 [2]: > 20 nM
- Test results [4]: ++
- inhibition at 0.05 µM [4]: 11.2%
- inhibition at 0.5 µM [4]: 82.7%
- inhibition at 5 µM [4]: 87.9%
- Test results [5]: ++
- inhibition at 0.05 µM [5]: 46%
- inhibition at 0.5 µM [5]: 84.5%
- inhibition at 5 µM [5]: 97.2%
- Test results [6]: ++
- inhibition at 0.05 µM [6]: 6.49%
- inhibition at 0.5 µM [6]: 52.6%
- inhibition at 5 µM [6]: 95.7%
- inhibition at 0.05 µM [7]: 8.59%
- inhibition at 0.5 µM [7]: 85.6%
- inhibition at 5 µM [7]: 96.2%
- Test results [7]: ++
- melting point: 99 to 100 °C

Structure (SMILES): CC(C)C[C@H](NC(=O)[C@H](CC(C)C)NC(=O)[C@H](Cc1ccccc1)NC(=O)c1cnccn1)B1OC2CC3C[C@@H](C3(C)C)[C@]2(C)O1 (stereo partly drawn) [Compound 5k, Pinanediol N-pyrazineformyl-L-phenylalanyl-L-leucyl-L-leucine Borate]
- IC50 [1]: 0.287 ± 0.019 nM
- IC50 [2]: > 20 nM
- IC50 [3]: 2.73 ± 1.04 nM
- melting point: 68 to 70 °C

Structure (SMILES): CC(C)C[C@H](NC(=O)[C@H](Cc1ccccc1)NC(=O)[C@H](Cc1ccccc1)NC(=O)c1cnccn1)B1OC2CC3C[C@@H](C3(C)C)[C@]2(C)O1 (stereo partly drawn) [Compound 5a, Pinanediol N-pyrazineformyl-L-phenylalanyl-L-phenylalanyl-L-leucine Borate]
- IC50 [1]: 0.402 ± 0.024 nM
- IC50 [2]: > 20 nM
- IC50 [3]: 8.33 ± 2.49 nM
- melting point: 78 to 80 °C

Structure (SMILES): CC(C)C[C@H](NC(=O)[C@H](Cc1ccccc1)NC(=O)[C@H](CC(C)C)NC(=O)c1cnccn1)B1OC2CC3C[C@@H](C3(C)C)[C@]2(C)O1 (stereo partly drawn) [Compound 5e, Pinanediol N-pyrazineformyl-L-leucyl-L-phenylalanyl-L-leucine Borate]
- IC50 [1]: 0.431 ± 0.086 nM
- IC50 [2]: > 20 nM
- IC50 [3]: 3.405 ± 0.021 nM
- melting point: 63 to 65 °C

Structure (SMILES): CC(C)C[C@H](NC(=O)[C@H](CC1=CNC2C=CC=CC12)NC(=O)[C@H](Cc1ccccc1)NC(=O)c1cnccn1)B1OC2CC3C[C@@H](C3(C)C)[C@]2(C)O1 (stereo partly drawn) [Compound 5j]
- IC50 [1]: > 20 nM
- IC50 [2]: > 20 nM
- IC50 [3]: > 20 nM

Structure (SMILES): CC(C)C[C@H](NC(=O)[C@H](Cc1ccc2ccccc2c1)NC(=O)[C@H](Cc1ccc2ccccc2c1)NC(=O)c1cnccn1)B1OC2CC3C[C@@H](C3(C)C)[C@]2(C)O1 (stereo partly drawn) [Compound 5h, Pinanediol N-pyrazineformyl-L-naphthylalanyl-L-naphthylalanyl-L-leucine Borate]
- IC50 [1]: 0.495 ± 0.092 nM
- IC50 [2]: > 20 nM
- Test results [4]: ++
- inhibition at 0.05 µM [4]: 11.4%
- inhibition at 0.5 µM [4]: 85.5%
- inhibition at 5 µM [4]: 88.3%
- Test results [5]: +++
- inhibition at 0.05 µM [5]: 55%
- inhibition at 0.5 µM [5]: 89%
- inhibition at 5 µM [5]: 95.4%
- Test results [6]: ++
- inhibition at 0.05 µM [6]: 13.1%
- inhibition at 0.5 µM [6]: 51.7%
- inhibition at 5 µM [6]: 91%
- inhibition at 0.05 µM [7]: 20.8%
- inhibition at 0.5 µM [7]: 91.2%
- inhibition at 5 µM [7]: 94.6%
- Test results [7]: ++
- melting point: 136 to 137 °C

Structure (SMILES): CC(C)C[C@H](NC(=O)[C@H](Cc1ccc2ccccc2c1)NC(=O)[C@H](Cc1ccccc1)NC(=O)c1cnccn1)B1OC2CC3C[C@@H](C3(C)C)[C@]2(C)O1 (stereo partly drawn) [Compound 5g, Pinanediol N-pyrazineformyl-L-phenylalanyl-L-naphthylalanyl-L-leucine Borate]
- IC50 [1]: 0.443 ± 0.081 nM
- IC50 [2]: > 20 nM
- Test results [4]: ++
- inhibition at 0.05 µM [4]: -5.06%
- inhibition at 0.5 µM [4]: 87.5%
- inhibition at 5 µM [4]: 88.3%
- Test results [5]: +++
- inhibition at 0.05 µM [5]: 77.6%
- inhibition at 0.5 µM [5]: 95.4%
- inhibition at 5 µM [5]: 95.9%
- Test results [6]: ++
- inhibition at 0.05 µM [6]: 46.7%
- inhibition at 0.5 µM [6]: 77.7%
- inhibition at 5 µM [6]: 94.7%
- inhibition at 0.05 µM [7]: 62.8%
- inhibition at 0.5 µM [7]: 95.5%
- inhibition at 5 µM [7]: 96.5%
- Test results [7]: +++
- melting point: 97 to 98 °C

Now from value to molecule, other results behind:

- IC50 [1]: 0.173 ± 0.033 nM
- IC50 [2]: > 20 nM
- IC50 [3]: 5.66 ± 0.839 nM
- melting point: 116 to 118 °C
Structure (SMILES): CC(C)C[C@H](NC(=O)[C@H](CC(C)C)NC(=O)[C@H](Cc1ccccc1)NC(=O)c1cnccn1)B(O)O [Compound 6k, N-pyrazineformyl-L-phenylalanyl-L-leucyl-L-leucine Boronic Acid]

- IC50 [1]: 0.19 ± 0.017 nM
- IC50 [2]: > 20 nM
- IC50 [3]: 5.14 ± 2.17 nM
- melting point: 113 to 116 °C
Structure (SMILES): CC(C)C[C@H](NC(=O)[C@H](Cc1ccccc1)NC(=O)[C@H](CC(C)C)NC(=O)c1cnccn1)B(O)O [Compound 6e, N-pyrazineformyl-L-leucyl-L-phenylalanyl-L-leucine Boronic Acid]

- IC50 [1]: > 20 nM
- IC50 [2]: > 20 nM
- IC50 [3]: > 20 nM
Structure (SMILES): CC(C)C[C@H](NC(=O)[C@H](Cc1c[nH]c2ccccc12)NC(=O)[C@H](Cc1ccccc1)NC(=O)c1cnccn1)B(O)O [Compound 6j, N-pyrazineformyl-L-phenylalanyl-L-tryptophyl-L-leucine Boronic Acid]

- IC50 [2]: > 20 nM
Structure (SMILES): CC(C)C[C@H](NC(=O)[C@H](Cc1ccccc1)NC(=O)c1cnccn1)B(O)O [PS341, Bortezomib, reference compound]
- Body weight (g) (X ± SD) (murine H22 cells; ICR mice with H22): 0.65 ± 2.07 g
- Inhibition rate (%) (murine H22 cells; tumors weighed at 12th day): 62.05%
- Tumor weight (g) (X ± SD) (murine H22 cells; tumors weighed at 12th day): 0.47 ± 0.20 g

- IC50 [1]: > 20 nM
- IC50 [2]: > 20 nM
- IC50 [3]: > 20 nM
Structure (SMILES): CC(C)C[C@H](NC(=O)[C@H](CC(C)C)NC(=O)[C@H](CC(C)C)NC(=O)c1cnccn1)B(O)O [Compound 6l, N-pyrazineformyl-L-leucyl-L-leucyl-L-leucine Boronic Acid]

- IC50 [1]: > 20 nM
- IC50 [2]: > 20 nM
- IC50 [3]: > 20 nM
Structure (SMILES): CC(C)C[C@H](NC(=O)[C@H](Cc1ccccc1)NC(=O)[C@H](Cc1c[nH]c2ccccc12)NC(=O)c1cnccn1)B(O)O [Compound 6i, N-pyrazineformyl-L-tryptophyl-L-phenylalanyl-L-leucine Boronic Acid]
